Here are results for one substance from paper PMC2747021, “Synergistic Antibacterial and Anti-Inflammatory Activity of Temporin A and Modified Temporin B In Vivo” (PLoS ONE, 2009).

For assay [1], the system named is Salmonella enterica serovar Paratyphi. Put plainly: Antibacterial activity, MIC100 broth dilution. Format: cell-based. To be noted: single peptide; MIC100, MH broth, about 10^6 CFU/ml, 37°C 20 h, absorbance 600 nm, triplicate. A general note: Broth dilution looks for growth in wells or tubes with falling amounts of substance.
Assay [2] relates to Staphilococcus.aureus A170. To be noted: single peptide; MIC100, MH broth, about 10^6 CFU/ml, 37°C 20 h, absorbance 600 nm, triplicate.
Assay [3] concerns Staphilococcus .aureus A172. To be noted: 20 h.
The subject of assay [4] is Staphilococcus aureus 007. The following applies: 20 h.
The test system of the next assay is Listeria monocytogenes. To be noted: 20 h.
The subject of another assay is Escherichian coli. To be noted: 20 h.

No end group written: not given here.

One may read the MIC as the smallest concentration in the dilution series that meets the test's criterion for growth inhibition. Read a low MIC as a more susceptible organism. For KKYLLPIVGNLLKSLL-NH2 [TB-YK], the MIC in assay [1] turned out to be 20 µg/mL; in assay [2], 20 µg/mL; in assay [3] it was 25 µg/mL; in assay [4], 10 µg/mL; in the assay on Listeria monocytogenes, 10 µg/mL; in the assay with Escherichian coli, 20 µg/mL.
